In patent US20170210751A1, “PRMT5 INHIBITORS AND USES THEREOF” (Epizyme, Inc., priority 2014, published 2017):

Biological target: T1, PRMT5/MEP50 (Homo sapiens, UniProt O14744)
T1 construct: Flag-PRMT5; made in house; host or cells: Spodoptera frugiperda (SF9) insect cells, baculovirus (pDEST8)
Experiment: PRMT5 Biochemical Assay (PRMT5/MEP50 enzyme assay on peptide substrate, 3H-SAM Flashplate)
Conditions: PRMT5/MEP50 4 nM, 3H-SAM 75 nM, peptide 40 nM, 30 min preincubation at 25 degrees Celsius
Procedure, shortened: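 FLAG-PRMT5/His-MEP50 from Sf9 cells (4 nM) preincubated 30 min at 25 °C with compounds, then reacted with 75 nM 3H-SAM and 40 nM biotinylated histone H4 1-15 peptide in Bicine pH 7.6, 1% DMSO. Stopped with 600 uM cold SAM; streptavidin Flashplate capture, scintillation counts; % inhibition fitted to 3- or 4-parameter curve.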

T1 sequence (O14744 with tags, fused parts or gaps): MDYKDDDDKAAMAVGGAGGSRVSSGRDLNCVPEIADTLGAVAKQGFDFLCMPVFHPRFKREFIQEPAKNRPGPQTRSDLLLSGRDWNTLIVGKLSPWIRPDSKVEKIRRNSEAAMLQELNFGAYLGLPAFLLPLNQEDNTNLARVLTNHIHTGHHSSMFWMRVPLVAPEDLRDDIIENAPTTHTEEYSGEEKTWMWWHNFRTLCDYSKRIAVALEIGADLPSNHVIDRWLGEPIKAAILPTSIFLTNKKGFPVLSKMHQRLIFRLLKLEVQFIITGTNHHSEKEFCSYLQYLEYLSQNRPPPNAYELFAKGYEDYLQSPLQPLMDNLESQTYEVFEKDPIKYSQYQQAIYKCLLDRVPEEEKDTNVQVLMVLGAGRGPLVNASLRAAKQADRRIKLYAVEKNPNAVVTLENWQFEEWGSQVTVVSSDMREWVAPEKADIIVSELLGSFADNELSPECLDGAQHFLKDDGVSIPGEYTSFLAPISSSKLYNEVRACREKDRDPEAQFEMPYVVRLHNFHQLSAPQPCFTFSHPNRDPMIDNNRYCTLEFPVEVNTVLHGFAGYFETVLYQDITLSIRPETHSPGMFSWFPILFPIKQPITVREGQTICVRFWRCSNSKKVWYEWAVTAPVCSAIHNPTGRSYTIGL
T1 sequence (Q9BQA1 with tags, fused parts or gaps partner limits assumed): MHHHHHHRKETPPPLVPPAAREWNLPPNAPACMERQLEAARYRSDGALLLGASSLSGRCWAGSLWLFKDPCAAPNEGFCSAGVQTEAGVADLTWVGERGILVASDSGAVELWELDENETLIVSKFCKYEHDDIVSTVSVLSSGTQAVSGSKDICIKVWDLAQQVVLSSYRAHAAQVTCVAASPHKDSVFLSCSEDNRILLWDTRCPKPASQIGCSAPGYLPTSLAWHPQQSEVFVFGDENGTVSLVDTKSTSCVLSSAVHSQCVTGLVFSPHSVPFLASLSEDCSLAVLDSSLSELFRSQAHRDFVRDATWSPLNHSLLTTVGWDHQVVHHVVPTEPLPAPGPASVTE

Row | IC50 | Structure (SMILES)
1 | > 10 µM | CC(=O)N1CC(Nc2cc(C(=O)NC[C@H](O)CN3CCc4c(cnn4C)C3)ncn2)C1 [Compound 3-29]
2 | > 10 µM | CC(=O)N1CCC(Nc2cc(C(=O)NC[C@H](O)CN3CCc4ncn(C)c4C3)ncn2)CC1 [Compound 3-30, (S)-6-((1-acetylpiperidin-4-yl)amino)-N-(2-hydroxy-3-(3-methyl-6,7-dihydro-3H-imidazo[4,5-c]pyridin-5(4H)-yl)propyl)pyrimidine-4-carboxamide]
3 | < 0.1 µM | O=C(COc1cccc2cccnc12)NCC(O)CN1CCc2ccsc2C1 (stereo not drawn) [Compound 1-5, N-(2-hydroxy-3-{4H,5H,6H,7H-thieno[2,3-c]pyridin-6-yl}propyl)-2-(quinolin-8-yloxy)acetamide]
